{
  "source": "patent US12466875B2",
  "about": "“Supramolecular high affinity protein-binding system for purification of biomacromolecules” (THE JOHNS HOPKINS UNIVERSITY, priority 2017, dated 2025)",
  "tested_on": "FITC-IgG",
  "assay": "Confocal fluorescence imaging with FITC-IgG",
  "type": "binding",
  "conditions": "2 μM FITC-IgG in PBS pH 7.4",
  "excerpt": "FIGS. 10A-C. […] (A) Image of Rhodamine B fluorescence. (B) Image of FITC fluorescence and (C) merged image of (A) and (B). Scale bar: 20 μm.\nTo better visualize the interactions between C12-Z33 immunofibers and IgG, labelling the C12-Z33 with the fluorescent dye (Rhodamine B) allows for direct imaging of fluorescent immunofibers and FITC-IgG under a confocal laser scanning microscope. Rhodamine B has been extensively used for staining biomaterials. […] The self-assembled fibrous morphology in PBS was confirmed using TEM (FIG. 9C). 100 μM RB-C12-Z33 diluted from a 1 mM stock solution and 2 μM FITC-IgG were premixed in PBS. 30 μl solution was spotted on a clean microscope slide right before imaging and covered by a coverslip to obtain a thin layer of liquid.",
  "note": "Entries after “also recorded” stand apart in the source; their conditions may differ.",
  "data": [
    {"substance": "RB-C12-Z33: Rhodamine B labelled C12-Z33; lysine added at N-terminal of Z33, Rhodamine B and C12 conjugated to its amine groups", "values": [
      {"measurement": "fluorescence of FITC-IgG after incubation (confocal)", "value": "co-localization of the fluorescence signal; also recorded: co-localization of fluorescence signals"}
    ]}
  ]
}
